Molecular target: T1, β2-adrenergic receptor (Rattus norvegicus, UniProt P10608)
T1 construct: endogenous in cells; host or cells: L6 myotubes differentiated from L6 myoblasts
Experiment: Glucose uptake in L6-myotubes in the presence of the selective β2-adrenergic receptor antagonist ICI-118551
Format: cell-based
Conditions: 3H-2-deoxyglucose, increasing ICI-118551
Method: L6-myoblasts were grown in Dulbecco's Modified Eagle's Medium (DMEM) containing 1 g/L glucose supplemented with 10% fetal bovine serum (FBS), 2 mM L-glutamine, 50 U/mL penicillin, […] streptomycin and 10 mM HEPES. Cells were plated at 1×10^5 cells per mL in 24-well plates. After reaching 90% confluence the cells were grown in medium containing 2% FBS for 7 days where upon cells differentiated into myotubes.
The differentiated L6-myotubes were serum-starved overnight in medium containing 0.5% fatty-acid free BSA and stimulated with Compounds A and B at a final concentration of 1×10^−5 M in the presence of the selective β2-adrenergic receptor antagonist ICI-118551. After 1 h 40 min the cells were washed with warm, glucose free medium twice and another portion of agonist was added to the glucose free medium. After another 20 min of incubation the cells were exposed to 50 nM ^3H-2-deoxyglucose for 10 min before washed in ice cold glucose free medium three times and lysed in 400 μl/well 0.2 M NaOH for 1 h at 60° C. The cell lysate was mixed with 4 ml scintillation buffer (Emulsifier Safe, Perkin Elmer) and the radioactivity was detected in a […] (Tri-Carb 4810TR, Perkin Elmer).

T1 sequence (P10608 whole entry): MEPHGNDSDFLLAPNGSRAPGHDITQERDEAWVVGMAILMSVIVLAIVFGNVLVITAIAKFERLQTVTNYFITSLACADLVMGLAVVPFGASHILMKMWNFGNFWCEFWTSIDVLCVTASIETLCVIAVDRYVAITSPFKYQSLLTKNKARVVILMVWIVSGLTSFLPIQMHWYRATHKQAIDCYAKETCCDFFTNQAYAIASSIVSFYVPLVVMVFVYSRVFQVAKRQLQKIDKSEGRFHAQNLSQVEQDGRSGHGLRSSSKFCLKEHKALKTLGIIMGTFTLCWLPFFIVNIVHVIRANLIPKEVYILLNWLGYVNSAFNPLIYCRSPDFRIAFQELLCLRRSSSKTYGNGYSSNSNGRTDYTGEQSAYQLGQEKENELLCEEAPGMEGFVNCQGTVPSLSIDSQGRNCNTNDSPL

Row | SMILES | glucose uptake promoted by the agonist in the presence of ICI-118551
1 | CC(C)(C)NCC(O)c1cc(Cl)c(N)c(Cl)c1 (centres unmarked) [clenbuterol, reference compound] | inhibited in a dose-dependent manner
2 | CC(C)(C)NC[C@H](O)c1cccc(F)c1 [Compound A] | inhibited in a dose-dependent manner
